The target in one test is ERα (Homo sapiens (Human), UniProt P03372). Kind of test: Degradation effect of compounds on ERα in MCF-7 and CAMA-1 cells (automated western blot, 24 h). Format: cell-based. To be noted: ERα degradation in MCF-7 cells; for DC50: 24 hours; for Dmax at 0.1 µM: MCF7, @100 nM. Here is the method: 2. Degradation Effect of Compounds on ERα in MCF-7 and CAMA-1 Cells
Breast cancer cells MCF-7 and CAMA-1 were purchased from ATCC, the cell media were all EMEM+10% FBS, and the cells were cultured in an incubator at 37° C. under 5% CO2. On the first day, the cells in an exponential phase were collected. With a 10% css-FBS phenol red-free medium, the cell suspension was adjusted to a corresponding concentration, plated at 300000 cells/well and incubated for 3 days. After 3 days, the liquid in the well was aspirated, and a 10% css-FBS phenol red-free medium containing the compound to be tested was added and cultured in an incubator at 37° C. under 5% CO2. After 24 hours, 60 μl of RIPA lysis solution (containing 1× protease inhibitor cocktail) was added to each well, lysed on ice for 15 minutes, and then centrifuged at 4° C. for 10 minutes at 12000 g. The supernatant protein samples were collected, and protein quantification was performed by a BCA method. ERα was detected using fully automatic protein expression quantitative analysis, which involved diluting the protein to be tested to 1.5 mg/mL. 4 μL of the diluted protein samples were added to 1 μL of 5×Master Mix (provided in the kit), and the prepared samples were denatured at 95° C. for 5 min and placed on ice for use. Antibody Diluent II (provided in the kit) was used to dilute the primary antibody, in which the dilution ratios of ERα (CST, 13258S) and β-actin (CST, 3700) antibodies were 1:40 and 1:500, respectively, the secondary antibody was a 1:1 mixture of goat anti-mouse and goat anti-rabbit secondary antibodies, and the chromogenic solution was a 1:1 mixture of Lumino-S and Peroxide. The prepared reagents were successively added to an assay plate according to instructions of the kit and detected on an instrument. Western blot band processing was performed using “Compass for SW”, a fully automatic protein expression quantitative analysis software, in which western blot bands were automatically simulated based on signal values. The proportion of ERα relative to the solvent control at different drug concentrations according to equation (1), wherein Acompound was the relative peak area of ERα in the treated group, and Asolvent was the relative peak area of ERα in the solvent control group.
ERα%=Acompound/Asolvent×100 equation (1)
DC50 calculation: Calculation was performed according to equation (1), and using Graphpad Prism 8.0 software, the compound concentration DC50 values at which the degradation rate of ERα was 50% were calculated using a non-linear four-parameter function (Non linear regression (curve fit)) (Table 1).
(In general: Immunoblotting shows a protein as a band on a membrane.)

The test system of another test is MCF-7 cells. Kind of test: Inhibitory effect of compounds on the proliferation of MCF-7 cells (CellTiter-Glo, 7 days). Type of test: cell-based. To be noted: Homo sapiens, MCF7, 168 h, 7 days incubation. Here is the method: 1. Inhibitory Effect of Compounds on the Proliferation of MCF-7 Cells
Breast cancer cells MCF-7 were purchased from ATCC, the cell media were all EMEM+10% FBS, and the cells were cultured in an incubator at 37° C. under 5% CO2. On the first day, cells in the exponential growth phase were collected and cultured in a 10% css-FBS phenol red-free medium without cytokines for 3 days. After the completion of culture, a 10% css-FBS phenol red-free medium was used to adjust the cell suspension to the corresponding concentration and same was plated to 1000 cells/well. P-estradiol and compounds of different concentrations were added. A plate without adding any reagent was taken and used as Day0 with a reading value RLUday0, determined with CellTiter-Glo kit, placed in an incubator and incubated for 7 days. After the incubation was completed, according to operation instructions for a CellTiter-Glo kit (Promega, G7573), 50 μL of CellTiter-Glo solutions, which were pre-melted and equilibrated to room temperature, were added to each well, and the mixtures were uniformly mixed for 2 min using a microplate shaker. The plate was placed at room temperature for 10 min, and then […] signal values were measured using a microplate reader (PHERAstar FSX). Chemiluminescence readouts were processed using origin9.2 software and the DoseResp function was used to calculate the GIsovalue for the inhibitory activity of compounds on the proliferation of cells (Table 1). The results were processed according to equation (1), the inhibition rate of the compound at different concentrations was calculated, and the GI50 value of the compound with a proliferation rate of 50% was calculated using origin9.2 software, wherein RLUcompound was the readout of the treated group, and RLUcontrol was the average value of the solvent control group.
Growth %=(RLUcompound−RLUday0)/(RLUcontrol−RLUday0)×100 equation (1)
On the technique in general: In ATP-based viability assays light output follows the ATP content of the culture.

Another test has as its target CYP2C19 (Homo sapiens (Human), UniProt P33261). Kind of test: CYP450 enzyme inhibition test, human liver microsomes. Type of test: in vitro ADME. To be noted: incubation concentration 0-50/100 μM. Here is the method: 6. CYP450 Enzyme Inhibition Test
The purpose of this study was to evaluate the effect of the test compound on the activity of five isoenzymes (CYP1A2, CYP2C9, CYP2C19, CYP2D6 and CYP3A4) of human liver microsomal cytochrome P450 (CYP) by using an in vitro testing system. The specific probe substrates of CYP450 isoenzymes were incubated with human liver microsomes and test compounds of different concentrations, and reduced nicotinamide adenine dinucleotide phosphate (NADPH) was added to initiate the reaction. After the completion of the reaction, the sample was treated and liquid chromatography-tandem mass spectrometry (LC-MS/MS) was used to quantitatively detect metabolites produced by specific substrates, changes in CYP enzyme activity were determined, and IC50 value was calculated to evaluate the inhibitory potential of the test compound on each CYP enzyme subtype.
Background: Liver microsomes are a subcellular fraction often used to study metabolism.

ERα, sequence (P03372 whole entry): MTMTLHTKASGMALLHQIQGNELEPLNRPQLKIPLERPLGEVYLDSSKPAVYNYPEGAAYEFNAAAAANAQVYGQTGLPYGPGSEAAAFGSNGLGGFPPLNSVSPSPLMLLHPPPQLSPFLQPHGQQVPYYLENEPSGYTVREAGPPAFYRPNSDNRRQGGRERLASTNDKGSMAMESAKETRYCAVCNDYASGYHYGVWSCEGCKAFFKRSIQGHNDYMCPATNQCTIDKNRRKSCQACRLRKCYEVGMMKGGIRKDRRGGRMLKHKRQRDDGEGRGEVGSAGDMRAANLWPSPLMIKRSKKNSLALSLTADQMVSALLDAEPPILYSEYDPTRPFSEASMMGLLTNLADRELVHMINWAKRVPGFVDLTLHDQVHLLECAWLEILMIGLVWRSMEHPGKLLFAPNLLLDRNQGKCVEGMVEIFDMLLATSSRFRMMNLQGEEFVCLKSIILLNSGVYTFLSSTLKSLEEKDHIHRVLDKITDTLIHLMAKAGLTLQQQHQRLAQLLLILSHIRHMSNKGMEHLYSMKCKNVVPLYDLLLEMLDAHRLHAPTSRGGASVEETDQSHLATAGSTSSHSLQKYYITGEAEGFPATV
CYP2C19, sequence (P33261 whole entry): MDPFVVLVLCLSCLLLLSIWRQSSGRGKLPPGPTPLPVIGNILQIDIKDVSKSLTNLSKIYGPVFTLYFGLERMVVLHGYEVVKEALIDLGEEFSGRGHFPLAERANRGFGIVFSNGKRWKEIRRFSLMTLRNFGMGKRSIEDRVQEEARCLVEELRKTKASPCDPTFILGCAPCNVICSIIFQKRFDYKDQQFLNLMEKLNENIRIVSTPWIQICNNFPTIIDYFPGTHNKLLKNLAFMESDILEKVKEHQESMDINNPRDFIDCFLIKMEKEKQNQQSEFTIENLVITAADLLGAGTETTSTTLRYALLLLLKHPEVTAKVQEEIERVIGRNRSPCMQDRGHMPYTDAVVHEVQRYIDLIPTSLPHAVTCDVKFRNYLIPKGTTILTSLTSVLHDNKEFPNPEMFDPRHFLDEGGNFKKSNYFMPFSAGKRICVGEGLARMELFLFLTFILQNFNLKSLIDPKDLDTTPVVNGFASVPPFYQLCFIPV

By DC50 is commonly meant the concentration giving 50% degradation. The low end stands for a more potent degrader, the high end for a less potent degrader. As a reminder, the Dmax is the greatest extent of degradation seen. High values mean a fuller loss of target, low ones a partial loss of target. At ERα, `C[C@@H]1Cc2c([nH]c3ccc(F)cc23)[C@@H](c2c(F)cc(N[C@H]3CCN(CCCF)C3)cc2F)N1CC(F)(F)F` [Compound 18, (S)—N-(3,5-difluoro-4-((1R,3R)-6-fluoro-3-methyl-2-(2,2,2-trifluoroethyl)-2,3,4,9-tetrahydro-1H-pyrido[3,4-b]indol-1-yl)phenyl)-1-(3-fluoropropyl)pyrrolidin-3-amine] displayed a DC50 of 0.47 nM and a maximal degradation (Dmax) at 0.1 µM of 70%.

`C[C@@H]1Cc2c([nH]c3cc(F)ccc23)[C@@H](c2c(F)cc(N[C@H]3CCN(CCCF)C3)cc2F)N1CC(F)(F)F` [Compound 32, (S)—N-(3,5-difluoro-4-((1R,3R)-7-fluoro-3-methyl-2-(2,2,2-trifluoroethyl)-2,3,4,9-tetrahydro-1H-pyrido[3,4-b]indol-1-yl)phenyl)-1-(3-fluoropropyl)pyrrolidin-3-amine]: on ERα, it took 1.23 nM to reach half-maximal degradation (DC50) and the maximal degradation (Dmax) at 0.1 µM came out at 88%.

In general, GI50 refers to the concentration giving 50% growth inhibition. Lower therefore signals greater sensitivity of the cells. As a reminder, the IC50 is the concentration at which inhibition is half-maximal. Higher therefore signals weaker potency. Regarding `C#Cc1ccc2c3c([nH]c2c1)[C@@H](c1c(F)cc(N[C@H]2CCN(CCCF)C2)cc1F)N(CC(F)(F)F)[C@H](C)C3` [Compound 43, (S)—N-(4-((1R,3R)-7-ethynyl-3-methyl-2-(2,2,2-trifluoroethyl)-2,3,4,9-tetrahydro-1H-pyrido[3,4-b]indol-1-yl)-3,5-difluorophenyl)-1-(3-fluoropropyl)pyrrolidin-3-amine], the GI50 in the test on MCF-7 cells was 0.219 nM. The same compound gave an IC50 against CYP2C19 of over 50000 nM.

These data come from patent publication US20240208932A1, “ARYLAMINO DERIVATIVE ESTROGEN RECEPTOR MODULATOR AND USE THEREOF” (XIZANG HAISCO PHARMACEUTICAL CO., LTD., priority 2021, published 2024).
